# Experimental data reported in patent US7897182B2, “Composition comprising bamboo extract and the compounds isolated therefrom showing treating and preventing activity for inflammatory and blood circulation disease” (Unigen, Inc., priority 2003, dated 2011).
# What was measured:
# iNOS gene expression = iNOS gene expression in LPS-treated RAW 264.7 cells (RT-PCR); assay type: cell-based, Murine; settings: for Inhibition of Gene expression (%) (iNOS): LPS, 24 hours
# Experimental: To investigate the inhibiting effect on gene expression, the extract or compound of the present invention was treated to the cell and the RNA extracted therefrom was used in the RT-PCR to evaluate the quantitative gene expression. […] And RNA was extracted by conventional extraction method using Trizol reagent (Gibco BRL) to use in the following reverse transcription-polymerase chain reaction. RT-PCR was performed according to the RT reaction (25° C. 10 min, 48° C. 30 min, 95° C. 5 min, 4° C. 10 min; 1 cycle) and subsequent PCR (50° C. 2 min, 95° C. 10 min, 95° C. 15 sec, 60° C. 1 min, 40 cycles) method well known in the art. As an internal control, 18S ribosomal RNA was used.
# [1] = tested on: LDL receptor defected mouse; test: Blood lipid in LDL defected mouse on high fat diet; assay type: in vivo; settings: lovastatin 4 mg/kg oral
# Experimental: (§1) Eight-weeks old male LDL receptor defected mouse accumulated to high fat feed were divided into two dose administration groups and one high dosing group of which group consist of six mice per group, Injectable distilled water was used as a negative control group, lovastain well known to be as an atheriosclerosis treating agent was administrated in an amount of 4 mg/kg per body weight as a positive control group, Bamboo was administrated to two treatment group in an amount of 50 and 100 mg/kg per body weight respectively, and one high dosing treatment group in an amount of 500 mg/kg per body weight for 20 weeks by way of compulsory oral administration after weighing the body weight twice a day (See Table 6).
# And then blood plasma was isolated by centrifugation at the speed of 11,000 g for 10 minutes and left alone at −70° C. before use. The value of blood lipid was determined by three categories i.e., TC (Total cholesterol), HDL-C (High-density lipoprotein cholesterol) and TG (Triglycerides) at KRIBB in Korea.
# [2] = tested on: LDL receptor defected mouse; test: Arteriosclerosis lesion area (Oil red O, aortic valve) in LDL defected mouse; assay type: in vivo; settings: positive control, lovastatin 4 mg/kg
# Experimental: During the experiment, the environment of the cage was maintained to the temperature of 23±2° C. and the relative humidity of […] under the artificial lamp for 12 hours, and less than five mice were bred in each mouse cage providing with free access to water (disinfected distilled water) and normal fatty feed (Harlan 2018S, Indianapolis USA).
# as §1, with “6). […]” for “6).”
# The calculation of lesion area was performed by staining the lesion formed at the position between 3rd cervical […] and aortic valve and photocopying and then the lesion area was calculated by using computer-assisted morphometry (TDI microscope Image Analyzer, USA) comparing with control group.
# HUVEC = test: Cell toxicity test, modified MTT method, HUVEC; assay type: cell-based, Human
# Experimental: The cell toxicity of tricin compound of Example 5 was tested using modified MTT method (J. Immunological Methods, 119, pp 203-210, 1989).
# 200 μl of HUVEC (2×10^5 cells/ml) on flat bottom 96-well microtiter plates (Nunc, Sweden) were treated with tricin prepared in various concentrations and cultured at 37° C. for 24 hours.
# 50 μl of MTT solution (1 mg/ml) was added to each well and incubated at 37° C. for 4 hours. And then supernatant was removed.
# To detect formazan crystal, 100 μl of DMSO was also added to each well and the colorigenic analysis was performed at 550 nm using microplate reader (Power wave-XS, Bio-Tek, USA).
# u-PA gene expression = test: u-PA mRNA expression in HUVEC (quantitative PCR); assay type: cell-based, Human; settings: for mRNA expression (fold), u-PA: HUVEC, control = 1
# Experimental: (§2) RNA was isolated from HUVEC cell by Rneasy mini kit (cat#74103, Qiagen Co.) according to the manufacturer's instruction. And RT-PCT reaction was performed by using quantitative PCR method (SDS 7700, Applied biosystems Co., U.S.A.).
# (§3) 5 μl of cDNA product obtained in the reverse transcription (RT) was aliquoted into each well of 96-well plate and then the mixture containing 5.6 mM MgCl2, 1×PCR buffer, 2 mM dNTP, 0.05% gelatin, 1 μM of a pair of each target gene primer or 0.16 μM of house keeping gene primer, 0.5 μM of target gene probe or 0.025 μM of housekeeping gene probe, 1.25 U of Taq polymerase was added thereto for polymerase chain reaction (PCR) (50° C. 2 min, 95° C. 10 min, 95° C. 15 sec, 60° C. 1 min, 40 cycles).
# (§4) As the result, final cT value was read and calculated.
# RAW 264.7 cells = test: Cell viability at the tricin concentrations of the NO test (Table 9)
# VEGF gene expression = test: VEGF mRNA expression in HUVEC (quantitative PCR); assay type: cell-based, Human; settings: for mRNA expression (fold), VEGF: HUVEC, control = 1
# Experimental: as §2, §3, §4
# NO production = test: Inhibition of NO production in LPS-treated RAW 264.7 cells (Griess reagent); assay type: cell-based, Murine
# Experimental: Murine macrophage cell line RAW 264.7 cell (ATCC, Rockville, Md., USA) were grown in DMEM (Gibco BRL Co., Ltd., USA), supplemented with 2.0 mM L-arginine, 100 μg/ml penicillin-streptomycin and 10% fetal bovine serum at 37° C. in 5% CO2 and 95% air condition in humidified incubator.
# To test the inhibiting activity of bamboo extract and the compound isolated therefrom on nitric oxide (NO), which is one of inflammatory factors, the increase of NO was determined in the cells treated with extract or compound of the present invention.
# 200 μl of RAW 264.7 cells (1×10^6 cells/ml) were seeded onto each well of 96-well microtiter plate (Nunc, Sweden) and incubated for 3 hours in DMEM media containing 10% FBS. […]
# And then 100 μl of cell supernatant of each well was transferred to new 96 well plate and 50 μl of Griess reagent (0.1% N-(1-naphtyl)ethylenediamine 2HCl, 1% sulfanilamide in 5% conc. H3PO4 in H2O) was added thereto followed by incubating for 10 mins at R.T. The absorbance was measured at 540 or 550 nm using ELISA reader (Power wave-XS, Bio-Tek, USA).
# eNOS gene expression = test: eNOS mRNA expression in HUVEC (quantitative PCR); assay type: cell-based, Human; settings: for mRNA expression (fold), eNOS: HUVEC, control = 1
# Experimental: as §2, §3, §4
# [3] = Mus musculus, RAW264.7, read-out: NO inhibition rate (%)
structure (smiles),measurement,setting,value
"COc1cc(/C=C/C(=O)CC(=O)/C=C/c2ccc(O)c(OC)c2)ccc1O [Curcumin, curcumin]","Comparative iNOS expression (% of control, DMSO)",iNOS gene expression; 0.032 μg/ml,80.5 % of control
same,Inhibition of Gene expression (%) (iNOS),iNOS gene expression; 0.032 μg/ml,40%
same,"Comparative iNOS expression (% of control, DMSO)",iNOS gene expression; 0.16 μg/ml,75.7 % of control
same,Inhibition of Gene expression (%) (iNOS),iNOS gene expression; 0.16 μg/ml,40%
same,"Comparative iNOS expression (% of control, DMSO)",iNOS gene expression; 0.8 μg/ml,64.4 % of control
same,Inhibition of Gene expression (%) (iNOS),iNOS gene expression; 0.8 μg/ml,40%
same,"Comparative iNOS expression (% of control, DMSO)",iNOS gene expression; 4 μg/ml,49.9 % of control
same,Inhibition of Gene expression (%) (iNOS),iNOS gene expression; 4 μg/ml,90%
same,Inhibition of Gene expression (%) (iNOS),iNOS gene expression; 12.5 μg/ml,90%
same,"Comparative iNOS expression (% of control, DMSO)",iNOS gene expression; 20 μg/ml,1.3 % of control
same,IC50,"iNOS gene expression; Mus musculus, RAW264.7, calculated from the expression data, read-out: IC50 (μg/ml) on iNOS gene expression",5.3 µg/mL
same,concentration at which iNOS gene expression is inhibited by 90%,iNOS gene expression; real time-gene expression analysis,4 µg/mL
"CC[C@H](C)C(=O)O[C@H]1C[C@@H](C)C=C2C=C[C@H](C)[C@H](CC[C@@H]3C[C@@H](O)CC(=O)O3)[C@H]21 [Lovastatin, lovastatin]",HDL-C,[1],25.00 ± 7.07
same,LDL-C,[1],3485.00 ± 304.06
same,TC,[1],3750.00 ± 42.43
same,TG,[1],300.00 ± 14.14
same,inhibition of the formation of arteriosclerosis compared with control group,[2],about 47%
O=C(O)/C=C/c1ccc(O)cc1 [p-coumaric acid],"cellular toxicity, in words",HUVEC,no cellular toxicity
COc1cc(-c2cc(=O)c3c(O)cc(O)cc3o2)cc(OC)c1O [tricin],"expression of u-PA gene in HUVEC, in words",u-PA gene expression,increased
same,"mRNA expression (fold), u-PA",u-PA gene expression; tricin 0.5 μg/ml,1.619 fold
same,"mRNA expression (fold), u-PA",u-PA gene expression; tricin 1.0 μg/ml,1.103 fold
same,"mRNA expression (fold), u-PA",u-PA gene expression; tricin 5.0 μg/ml,2.962 fold
same,"toxicity at the active concentrations, in words","RAW 264.7 cells; 25, 12.5 and 6.5 μg/ml",no toxicity
same,Cell viability (%),RAW 264.7 cells; tricin 1.625 μg/ml,126%
same,Cell viability (%),RAW 264.7 cells; tricin 3.25 μg/ml,99%
same,Cell viability (%),RAW 264.7 cells; tricin 6.5 μg/ml,96%
same,Cell viability (%),RAW 264.7 cells; tricin 12.5 μg/ml,92%
same,Cell viability (%),RAW 264.7 cells; tricin 25 μg/ml,80%
same,Cell viability (%),RAW 264.7 cells; tricin 50 μg/ml,49%
same,cellular toxicity,"HUVEC; HUVEC, 5 μg/ml, 24 hours, MTT",51%
same,"expression of VEGF in HUVEC, in words",VEGF gene expression,increased
same,"mRNA expression (fold), VEGF",VEGF gene expression; tricin 0.5 μg/ml,2.046 fold
same,"mRNA expression (fold), VEGF",VEGF gene expression; tricin 1.0 μg/ml,1.469 fold
same,"mRNA expression (fold), VEGF",VEGF gene expression; tricin 5.0 μg/ml,1.545 fold
same,"NO inhibition, in words","NO production; 25, 12.5 and 6.5 μg/ml",strong NO inhibition rate
same,inhibition at 1.625 µg/mL,NO production; [3],25.9 ± 0.006%
same,inhibition at 3.25 µg/mL,NO production; [3],38.1 ± 0.005%
same,inhibition at 6.5 µg/mL,NO production; [3],52 ± 0.015%
same,inhibition at 25 µg/mL,NO production; [3],74.6 ± 0.009%
same,inhibition at 50 µg/mL,NO production; [3],49.7 ± 0.007%
same,inhibition at 12.5 µg/mL,"NO production; Mus musculus, RAW264.7, tricin 12.5 μg/ml, read-out: NO inhibition rate (%)",71.2 ± 0.003%
same,"expression of eNOS in HUVEC, in words",eNOS gene expression,increased
same,"mRNA expression (fold), eNOS",eNOS gene expression; tricin 0.5 μg/ml,3.024 fold
same,"mRNA expression (fold), eNOS",eNOS gene expression; tricin 1.0 μg/ml,4.711 fold
same,"mRNA expression (fold), eNOS",eNOS gene expression; tricin 5.0 μg/ml,0.452 fold
